Data published in ChEMBL document CHEMBL1148245 (Bioorg Med Chem Lett, 2004).
pIC50: −log10 of the molar value.

Experiments:
[1] = biological target: T1, 5-hydroxytryptamine receptor 1A (Homo sapiens, UniProt P08908); assay: In vitro binding affinity against 5-hydroxytryptamine 1A receptor using [3H]8-OH-DPAT in human CYP3A4 assay
T1 sequence (P08908 whole entry): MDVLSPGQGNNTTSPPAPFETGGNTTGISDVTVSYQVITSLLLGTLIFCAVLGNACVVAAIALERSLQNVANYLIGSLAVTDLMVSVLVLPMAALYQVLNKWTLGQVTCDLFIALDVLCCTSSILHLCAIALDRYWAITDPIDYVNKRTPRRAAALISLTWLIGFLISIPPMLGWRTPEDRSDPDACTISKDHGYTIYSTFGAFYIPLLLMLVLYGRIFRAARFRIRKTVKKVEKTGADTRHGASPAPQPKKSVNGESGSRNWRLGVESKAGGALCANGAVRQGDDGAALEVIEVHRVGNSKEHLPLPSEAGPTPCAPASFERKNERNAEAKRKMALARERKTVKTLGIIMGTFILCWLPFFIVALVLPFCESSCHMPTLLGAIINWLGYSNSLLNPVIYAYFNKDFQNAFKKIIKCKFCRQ

CYP3A4 = assay: CYP3A4 metabolism half-life (t1/2); details: human

Row | Structure (SMILES) | pIC50 [1] | half-life (CYP3A4)
1 | O=C1CC2(CCCC2)CC(=O)N1CCC(O)CN1CCN(c2ccc(F)cc2)CC1 (stereo unspecified) | 7.16 | 3.8 min
2 | O=C1CC2(CCCC2)CC(=O)N1CCC(O)CN1CCN(c2ncccn2)CC1 (stereo unspecified) | 6.08 | 10.2 min
3 | CC(C)(CCN1C(=O)CC2(CCCC2)CC1=O)CN1CCN(c2ncccn2)CC1 | 6.15 | 2.9 min
4 | O=C1c2ccccc2C(=O)N1CCCCN1CCN(c2ncc(F)cn2)CC1 | 6.36 | 20.4 min
5 | CC(CCCN1C(=O)CC2(CCCC2)CC1=O)N1CCN(c2ncccn2)CC1 (stereo unspecified) | 8.40 | 3.8 min
6 | O=C1CC2(CCCC2)CC(=O)N1CCCCN1CCN(c2ccc(F)cc2)CC1 | 7.19 | 3.2 min
7 | CC1(C)CC(=O)N(CCCCN2CCN(c3ncc(F)cn3)CC2)C(=O)C1 | 6.69 | 78.3 min
8 | O=C1CC2(CCCC2)CC(=O)N1CCC(O)CN1CCN(c2cnccn2)CC1 (stereo unspecified) | < 6.00 | 9.6 min
9 | O=C1CC2(CCCC2)CC(=O)N1CCCCN1CCN(c2ccccc2)CC1 | 7.82 | 8 min
10 | CC(CCCN1C(=O)CC2(CCCC2)CC1=O)N1CCN(c2ncc(F)cn2)CC1 (stereo unspecified) | 7.34 | 14.8 min
11 | CC(CCCN1C(=O)c2ccccc2C1=O)N1CCN(c2ncc(F)cn2)CC1 (stereo unspecified) | 6.68 | 18.2 min
12 | O=C1c2ccccc2C(=O)N1CCCCN1CCN(c2ncccn2)CC1 | 7.22 | 26.8 min
13 | CC(O)(CCN1C(=O)CC2(CCCC2)CC1=O)CN1CCN(c2ncccn2)CC1 (stereo unspecified) | 5.84 | 8.6 min
14 | CC(CCCN1C(=O)CC(C)(C)CC1=O)N1CCN(c2ncc(F)cn2)CC1 (stereo unspecified) | 7.06 | 40.1 min
15 | COc1ccccc1N1CCN(CCCCN2C(=O)CC3(CCCC3)CC2=O)CC1 | 8.70 | 5.1 min
16 | CC1(C)CC(=O)N(CCCCN2CCN(c3ncccn3)CC2)C(=O)C1 [GEPIRONE] |  | 30.3 min
17 | O=C1CC2(CCCC2)CC(=O)N1CCCCN1CCN(c2ncc(F)cn2)CC1 | 7.20 | 52.3 min
18 | COc1ccc(N2CCN(CCCCN3C(=O)CC4(CCCC4)CC3=O)CC2)cc1 | 6.03 | 21.1 min
19 | O=C1CC2(CCCC2)CC(=O)N1CCCCN1CCN(c2cnccn2)CC1 | 6.34 | 5.5 min
20 | CC(CCCN1C(=O)CC2(CCCC2)CC1=O)N1CCN(c2ccc(F)cc2)CC1 (stereo unspecified) | 7.00 | 2.4 min
21 | COc1ccccc1N1CCN(CC(O)CCN2C(=O)CC3(CCCC3)CC2=O)CC1 (stereo unspecified) | 7.92 | 7.8 min
